Data published in paper PMC12040169 (PLOS Biology, 2025).

Assay: in vitro
Settings: human, hela cells, % viability

Structure (SMILES)	viability at 28.5 h, 10 µM	viability at 28.5 h, 10 µM (bulk resorufin, single well)
COc1ccc(Nc2nc(-c3cc(C(C)C)ccc3OC)cn3ccnc23)cn1 [CBK066354]	84.3%	
FC(F)(F)c1cc(-c2cn3ccnc3c(Nc3ccc4[nH]ccc4c3)n2)cc(C(F)(F)F)c1 [CBK066356]	91.7%	
CN(C)CCNC(=O)c1cccc(-c2cn3ccnc3c(NCc3ccccc3)n2)c1 [CBK066365]	102%	
COc1ccc(C(C)C)cc1-c1cn2ccnc2c(N(C)CCN(C)C)n1 [CBK066368]	94.8%	
OCCNc1nc(-c2ccccc2)cn2ccnc12 [CBK066379]	97.6%	
CN(C)CCN(C)c1nc(-c2ccc3c(c2)OCO3)cn2ccnc12 [CBK066381]	110%	
CN1CCN(c2nc(-c3cc4ccccc4s3)cn3ccnc23)CC1 [CBK066388]	106%	
FC(F)(F)c1cc(-c2cn3ccnc3c(N3CCOCC3)n2)cc(C(F)(F)F)c1 [CBK066396]	93.4%	
COc1cccc(OC)c1-c1cn2ccnc2c(N(C)CCN(C)C)n1 [CBK066398]	97.3%	
COCCNc1nc(-c2cccs2)cn2ccnc12 [CBK066408]	99.3%	
COCCNc1nc(-c2cccc(F)c2)cn2ccnc12 [CBK066465]	98.4%	
CCNc1nc(-c2ccc(Oc3ccccc3)cc2)cn2ccnc12 [CBK066467]	94.6%	
CN(C)CCN(C)c1nc(-c2ccc(Oc3ccccc3)cc2)cn2ccnc12 [CBK066469]	99.8%	
FC(F)(F)c1cccc(-c2cn3ccnc3c(NCCc3ccccn3)n2)c1 [CBK066491]	95.4%	
CCOc1cccc(-c2cn3ccnc3c(Nc3ccc(Cl)cc3)n2)c1 [CBK066505]	92.1%	
c1ccc(Nc2nc(-c3cccs3)cn3ccnc23)cc1 [CBK066513]	83.7%	
CN1CCCN(c2nc(-c3cccc(C(F)(F)F)c3)cn3ccnc23)CC1 [CBK066519]	92%	
c1ccc(N2CCN(c3nc(-c4ccoc4)cn4ccnc34)CC2)nc1 [CBK066522]	99.7%	
Cc1csc(-c2cn3ccnc3c(N3CCN(c4ccccn4)CC3)n2)c1 [CBK066530]	95.6%	
CSc1ccc(-c2cn3ccnc3c(Nc3ccccc3)n2)cc1 [CBK066537]	91.3%	
OCCN1CCN(c2nc(-c3cc(Cl)cc(Cl)c3)cn3ccnc23)CC1 [CBK066558]	94.1%	
Nc1ccc(-c2cn3ccnc3c(NCc3cccs3)n2)cc1 [CBK066564]	95.5%	

Structure (SMILES)	viability at 28.5 h, 10 µM	viability at 28.5 h, 10 µM (bulk resorufin, single well)
CCOc1cccc(-c2cn3ccnc3c(N(C)CCN(C)C)n2)c1 [CBK066569]	89.7%	
CN1CCCN(c2nc(-c3cccs3)cn3ccnc23)CC1 [CBK066652]	89.5%	
CCSc1ccc(-c2cn3ccnc3c(N3CCN(CCN(C)C)CC3)n2)cc1 [CBK066662]	92.8%	
Nc1ccc(-c2cn3ccnc3c(NCC3CC3)n2)cc1 [CBK066677]	101%	
c1cncc(CNc2nc(-c3cccs3)cn3ccnc23)c1 [CBK066687]	104%	
Fc1ccc(-c2cn3ccnc3c(NC3CC3)n2)cc1F [CBK066692]	101%	
Cn1ccc2cc(-c3cn4ccnc4c(N4CCOCC4)n3)ccc21 [CBK066696]	89.1%	
c1csc(-c2cn3ccnc3c(NC3CC3)n2)c1 [CBK066712]	108%	
CCOc1cccc(-c2cn3ccnc3c(NC3CC3)n2)c1 [CBK066736]	91.6%	
Cc1cc(-c2cn3ccnc3c(NC3CC3)n2)cc(C)c1O [CBK066747]	86.5%	
c1csc(-c2cn3ccnc3c(NCC3CC3)n2)c1 [CBK066754]	93.7%	
O=C(NCCCNc1ccc([N+](=O)[O-])cc1)c1cccs1 [CBK066825]	94.1%	
COC(=O)c1sccc1NC(=O)COc1ccc([N+](=O)[O-])cc1Cl [CBK066828]	109%	
CCOC(=O)c1c(N)sc(C(=O)Nc2cccc([N+](=O)[O-])c2)c1C [CBK066829]	91.2%	
O=C(Nc1cc(Cl)cc(Cl)c1)c1ccc([N+](=O)[O-])s1 [CBK066840]	95.2%	
COC(=O)c1cc(Br)c(NC(=O)c2cccs2)cc1OC [CBK066842]	86.6%	
O=C(O)c1sccc1Oc1ccc(F)cc1[N+](=O)[O-] [CBK066847]	112%	
O=C(Nc1cccc(F)c1C(=O)Nc1ccc(F)cc1F)c1cccs1 [CBK066849]	87.3%	
N#Cc1ccc(SCCOC(=O)c2cccs2)c([N+](=O)[O-])c1 [CBK066853]	99%	
N#Cc1cccc(NC(=O)c2cccs2)c1 [CBK066855]	96.2%	
Cc1cc(N2CCOCC2)c2c(N)c(Br)cc(C)c2n1 [CBK066880]	73%	
O=C(c1c(-c2ccccc2)nnc2ccccc12)N1CCN(CCO)CC1 [CBK066882]	87.3%	

Structure (SMILES)	viability at 28.5 h, 10 µM	viability at 28.5 h, 10 µM (bulk resorufin, single well)
CC(C)CN(CC(N)=O)CC(=O)NC1(c2ccccc2)CCC1 [CBK066883T]	88.9%	
CC(=O)N1CCN(c2c(-c3ccccc3)nnc3ccccc23)CC1 [CBK066889]	91.2%	
Cc1cc(N2CCNCC2)c2ccccc2n1 [CBK066895]	86.1%	
c1ccc2c(N3CCCCC3)cnnc2c1 [CBK066897]	99.2%	
CN(C)CCNc1cc(-c2ccncc2)nc2ccccc12 [CBK066898B]	90.4%	
CC1CCN(c2nc(-c3ccccc3O)nc3ccccc23)CC1 [CBK066899]	109%	
Cc1ccc(-c2cc(C(=O)N3CCOCC3)c3cc(Br)ccc3n2)cc1 [CBK066901]	86.4%	
COc1ccc([C@]23CC[C@H](NC(=O)Nc4ccc(F)cc4F)C[C@H]2N(C)CC3)cc1OC [CBK066917T]	90.6%	
COc1ccc([C@]23CC[C@H](NC(=O)Nc4ccc(C#N)c(Cl)c4)C[C@H]2N(C)CC3)cc1OC [CBK066928T]		94.9%
O=S(=O)(Nc1cc(NC2CCNC2)c2occc2c1)c1ccccc1 (centres unmarked) [CBK066943C]	104%	
CCN(CC)C(=O)[C@@H]1CCCN(C2CCN(C(=O)c3c4ccccc4cc4ccccc34)CC2)C1 [CBK066966C]	90.4%	
CCN(CC)C(=O)C1CCCN(C2CCN(C(=O)c3c4ccccc4cc4ccccc34)CC2)C1 (centres unmarked) [CBK066966]	102%	
CC(=O)N1CCc2c([nH]c3ccccc23)C1CNCc1ccc(F)cc1 (centres unmarked) [CBK066968]	96.6%	
Fc1ccc(OCCNCCC2NCCc3c2[nH]c2ccccc32)cc1 (centres unmarked) [CBK066970]	97.6%	
Cc1ccc(CCCC(=O)N2CCc3c([nH]c4c(C)cccc34)C23CCN(Cc2ccc(F)cc2)C3)cc1 (centres unmarked) [CBK066979]	99.2%	
CCCN(CC1CC1)C(=O)CC1SC(NCC2CCCCC2)=NC1=O (centres unmarked) [CBK067014]	104%	
O=C1N=C(NCC2CCCCC2)OC1Cc1ccccc1 (centres unmarked) [CBK067023]	94.1%	
COc1ccc(Br)cc1C(=O)NCC1(c2ccccc2)CCOCC1 [CBK067051]	82.7%	
S=C(NCC1CCCCC1)Nc1ncc(Cl)cc1Cl [CBK067053]	91%	
CC(C)(C#N)C(C)(C)c1nnn[nH]1 [CBK067072]	85.1%	
CC1CCC(C(C)C)C(OC(=O)C(C)O)C1 (centres unmarked) [CBK067073]	81.6%	
